pEC50: −log10 of the molar value. Some results are limits rather than exact numbers.

The first assay addresses T1, TFEB (Homo sapiens, UniProt P19484).
T1 sequence (P19484 1-476): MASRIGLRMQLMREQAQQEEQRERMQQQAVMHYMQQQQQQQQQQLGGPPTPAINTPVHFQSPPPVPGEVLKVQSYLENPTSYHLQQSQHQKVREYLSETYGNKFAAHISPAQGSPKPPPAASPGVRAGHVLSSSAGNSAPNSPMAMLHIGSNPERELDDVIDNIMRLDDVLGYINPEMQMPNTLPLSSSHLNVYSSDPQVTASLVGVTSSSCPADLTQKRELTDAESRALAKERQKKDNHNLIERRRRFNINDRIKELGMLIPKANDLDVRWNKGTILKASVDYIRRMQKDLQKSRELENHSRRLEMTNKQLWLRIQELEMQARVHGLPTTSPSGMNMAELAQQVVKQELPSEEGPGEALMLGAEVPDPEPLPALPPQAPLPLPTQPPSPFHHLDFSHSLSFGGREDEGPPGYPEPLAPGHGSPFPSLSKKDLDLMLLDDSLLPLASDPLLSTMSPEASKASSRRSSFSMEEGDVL
Description: Tfeb-Translocation Assay HEK-293T-oEX-Tfeb-GFP Cell Line. To be noted: HEK-293T-oEX-TFEB-GFP cells; reference compound; read-out: EC50 of reference compound (TFEB translocation). It is filed as cell-based. As for the experimental part:
Tfeb-Translocation Assay HEK-293T-oEX-Tfeb-GFP Cell Line
• 1). Added 2×10^6 cell into a T75 flask with 15 mL DiVEM medium (with 10% FBS, 1% PS, 1×GLUTAMAX, 1×MEM NEAA, 1×HEPES Buffer Solution and 5 ug/mL blasticidin). • 2). Culturing for 48-72 hours. Cells in logarithmic growth phase were taken for experiment. The other cells were passaged as described in step 1. • 3). Seeded 1×10^4 cells/30 μL/well into 384-well plate (BD 356663). Cultured overnight at 37° C. & 5% CO2 incubator. • 4). Note: Used cells <10 passage
• 1). Compounds were firstly diluted by DMSO to the stock needed (10 mM), and aliquoted and stored at −20° C. • 2). Took one aliquot each time and made 3-fold or 2-fold dilutions as indicated, total 10 doses plus one DMSO control well in the source plate. • 3). Added 150 or 90 nL/well compounds solution to the assay plate by ECHO and incubated for 6 or 18 hours respectively at 37° C. & 5% CO2 incubator.
• 1). Added 30 uL 8% PFA into the wells and incubated 20 min at room temperature. • 2). Discarded the medium, washed the wells twice with DPBS to eliminate foam and bubbles in the well.
• 1). Diluted Hoechest-333824 in DPBS to get 2 μg/mL solution and added 30 uL/well into assay plate, incubated at room temperature for 20 mins. • 2). Discarded the supernatant, washed the wells twice with DPBS to eliminate foam and bubbles in the well. Then added DPBS 20 uL/well.
3). Scanned Plate by Operetta.
• 1). Reference compound: Torin 1 • 2). Test compounds: C1, C2, C3, C4, C5, C6. • 3). Diluted compounds in 384 LDV-dilution plate according to the dilution plate map • 4). Compounds starting concentration: Torin 1: 300 nM and Test compounds: 50 uM.
• 1). Selected all nucleus by Operetta as ‘All Cells’ • 2). Calculated the EGFP average intensity inside the Nucleus region. • 3). Selected population that the EGFP mean intensity inside the Nucleus region>background as the EGFP-positive cells • 4). Selected the Surrounding region of the nucleus and calculated the EGFP mean intensity of the region • 5). Inside the EGFP-positive cell population, selected the cells with EGFP mean intensity inside the Nucleus region/the EGFP mean intensity inside the surrounding region=1.2 (This ratio could be slightly adjusted from time to time) as the Translocation positive cell. • 6). Outputted the ratio of Translocation positive cell/EGFP-positive cells as the Translocation Positive Ratio. • 7). Each time set the ratio of DMSO group (Control Group) as ˜15% and then normalized the compound group to the DMSO group.
Usually pEC50 stands for the negative decadic logarithm of the EC50, by convention in mol/L. For `CCC(=O)N1CCN(c2ccc(-n3c(=O)ccc4cnc5ccc(-c6cnc7ccccc7c6)cc5c43)cc2C(F)(F)F)CC1` [Torin 1, reference compound], the pEC50 is 7.55.

Staying with this assay, now noted: HEK-293T-oEX-TFEB-GFP cells; translocation positive cells ratio; read-out: TFEB Translocation EC50.
As for `Cc1nc2ccn(C(C)C)c(=O)c2cc1C(=O)NCc1ccccn1` [Example 45, 6-isopropyl-2-methyl-5-oxo-N-(pyridin-2-ylmethyl)-5,6-dihydro-1,6-naphthyridine-3-carboxamide], the pEC50 was 6.00 to 7.00. For `Cc1nc(CNC(=O)c2cc3c(=O)n(Cc4ccc(Cl)cc4)ccc3nc2C)co1` [Example 80, 6-(4-chlorobenzyl)-2-methyl-N-((2-methyloxazol-4-yl)methyl)-5-oxo-5,6-dihydro-1,6-naphthyridine-3-carboxamide], the pEC50 is > 7.00. In the case of `COCCn1ccc2nc(C)c(C(=O)NCc3ccc(Cl)cc3)cc2c1=O` [Example 20, N-(4-chlorobenzyl)-6-(2-methoxyethyl)-2-methyl-5-oxo-5,6-dihydro-1,6-naphthyridine-3-carboxamide], the pEC50 was 5.00 to 6.00. In the case of `COCCOCCOCCn1ccc2nc(C)c(C(=O)NCc3ccc(Cl)cn3)cc2c1=O` [Example 59, N-((5-chloropyridin-2-yl)methyl)-6-(2-(2-(2-methoxyethoxy)ethoxy)ethyl)-2-methyl-5-oxo-5,6-dihydro-1,6-naphthyridine-3-carboxamide], the pEC50 is ≤ 5.00. Consider `Cc1nc2ccn(Cc3cnn(C)c3)c(=O)c2cc1C(=O)NCc1ccccn1` [Example 49, 2-methyl-6-((1-methyl-1H-pyrazol-4-yl)methyl)-5-oxo-N-(pyridin-2-ylmethyl)-5,6-dihydro-1,6-naphthyridine-3-carboxamide], for which the pEC50 was ≤ 5.00. As to `Cc1nc2ccn(Cc3ccccc3)c(=O)c2cc1C(=O)NCc1cnn(C)n1` [Example 9, 6-benzyl-2-methyl-N-((2-methyl-2H-1,2,3-triazol-4-yl)methyl)-5-oxo-5,6-dihydro-1,6-naphthyridine-3-carboxamide], the pEC50 is 6.00 to 7.00. `Cc1nc2ccn(Cc3ccccc3)c(=O)c2cc1C(=O)NCc1cn(C)nn1` [Example 8, 6-benzyl-2-methyl-N-((1-methyl-11H-1,2,3-triazol-4-yl)methyl)-5-oxo-5,6-dihydro-1,6-naphthyridine-3-carboxamide]: the negative-log EC50 (pEC50) is 5.00 to 6.00. Still for that read-out and setting: the result for `Cc1nc2ccn(Cc3ccccc3)c(=O)c2cc1C(=O)NCc1ncccn1` [Example 29, 6-benzyl-2-methyl-5-oxo-N-(pyrimidin-2-ylmethyl)-5,6-dihydro-1,6-naphthyridine-3-carboxamide] reads ≤ 5.00; that for `COCCn1ccc2nc(C)c(C(=O)NCc3ccc(C)o3)cc2c1=O` [Example 72, 6-(2-methoxyethyl)-2-methyl-N-((5-methylfuran-2-yl)methyl)-5-oxo-5,6-dihydro-1,6-naphthyridine-3-carboxamide], 6.00 to 7.00; that for `Cc1nc2ccn(CC3CCO3)c(=O)c2cc1C(=O)NCc1ccc(Cl)cc1` (stereo not drawn) [Example 27, N-(4-chlorobenzyl)-2-methyl-6-(oxetan-2-ylmethyl)-5-oxo-5,6-dihydro-1,6-naphthyridine-3-carboxamide], 5.00 to 6.00. On to `Cc1nc2ccn(Cc3ccccc3)c(=O)c2cc1C(=O)NCc1ccc(C(N)=O)cc1` [Example 43, 6-benzyl-N-(4-carbamoylbenzyl)-2-methyl-5-oxo-5,6-dihydro-1,6-naphthyridine-3-carboxamide], for which the pEC50 is ≤ 5.00. As for `Cc1nc2ccn(Cc3ccccc3)c(=O)c2cc1C(=O)NCc1ccc(OC(C)C)cc1` [Example 67, 6-benzyl-N-(4-isopropoxybenzyl)-2-methyl-5-oxo-5,6-dihydro-1,6-naphthyridine-3-carboxamide], the pEC50 was ≤ 5.00. Regarding `Cc1nc2ccn(Cc3ccccc3)c(=O)c2cc1C(=O)NCc1ccccc1F` [Example 16, 6-benzyl-N-(2-fluorobenzyl)-2-methyl-5-oxo-5,6-dihydro-1,6-naphthyridine-3-carboxamide], the pEC50 is 6.00 to 7.00. Turning to `Cc1nc(CNC(=O)c2cc3c(=O)n(Cc4cc(F)cc(F)c4)ccc3nc2C)co1` [Example 81, 6-(3,5-difluorobenzyl)-2-methyl-N-((2-methyloxazol-4-yl)methyl)-5-oxo-5,6-dihydro-1,6-naphthyridine-3-carboxamide], the pEC50 is > 7.00. As to `Cc1nc(CNC(=O)c2cc3c(=O)n(Cc4ccccc4)ccc3nc2C)no1` [Example 19, 6-benzyl-2-methyl-N-((5-methyl-1,2,4-oxadiazol-3-yl)methyl)-5-oxo-5,6-dihydro-1,6-naphthyridine-3-carboxamide], the pEC50 was 5.00 to 6.00. Still for that read-out and setting: the result for `Cc1ccc(CNC(=O)c2cc3c(=O)n(Cc4cccs4)ccc3nc2C)o1` [Example 70, 2-methyl-N-((5-methylfuran-2-yl)methyl)-5-oxo-6-(thiophen-2-ylmethyl)-5,6-dihydro-1,6-naphthyridine-3-carboxamide] reads > 7.00. Regarding `COc1ccc(CNC(=O)c2cc3c(=O)n(Cc4ccccc4)ccc3nc2C)cc1` [Example 24, 6-benzyl-N-(4-methoxybenzyl)-2-methyl-5-oxo-5,6-dihydro-1,6-naphthyridine-3-carboxamide], the pEC50 is 5.00 to 6.00. Same read-out and setting: the result for `Nc1nc2ccn(Cc3ccccc3)c(=O)c2cc1C(=O)NCc1ccccn1` [Example 74, 2-amino-6-benzyl-5-oxo-N-(pyridin-2-ylmethyl)-5,6-dihydro-1,6-naphthyridine-3-carboxamide] reads 5.00 to 6.00. As to `Cc1cnc(CNC(=O)c2cc3c(=O)n(Cc4ccccc4)ccc3nc2C)o1` [Example 3, 6-benzyl-2-methyl-N-((5-methyloxazol-2-yl)methyl)-5-oxo-5,6-dihydro-1,6-naphthyridine-3-carboxamide], the pEC50 is 6.00 to 7.00. Turning to `Cc1nc2ccn(Cc3ccccc3)c(=O)c2cc1C(=O)NCc1ccncc1` [Example 12, 6-benzyl-2-methyl-5-oxo-N-(pyridin-4-ylmethyl)-5,6-dihydro-1,6-naphthyridine-3-carboxamide], the pEC50 is 5.00 to 6.00. In the case of `Cc1ccc(CNC(=O)c2cc3c(=O)n(Cc4ccccc4)ccc3nc2C)cc1` [Example 68, 6-benzyl-2-methyl-N-(4-methylbenzyl)-5-oxo-5,6-dihydro-1,6-naphthyridine-3-carboxamide], the pEC50 is 6.00 to 7.00. Regarding `Cc1nc(CNC(=O)c2cc3c(=O)n(Cc4ccc(F)cc4)ccc3nc2C)co1` [Example 78, 6-(4-fluorobenzyl)-2-methyl-N-((2-methyloxazol-4-yl)methyl)-5-oxo-5,6-dihydro-1,6-naphthyridine-3-carboxamide], the negative logarithm of the EC50 (pEC50) is > 7.00. Turning to `Cc1nc2ccn(Cc3ccccc3)c(=O)c2cc1C(=O)NCc1cncnc1` [Example 34, 6-benzyl-2-methyl-5-oxo-N-(pyrimidin-5-ylmethyl)-5,6-dihydro-1,6-naphthyridine-3-carboxamide], the pEC50 is 6.00 to 7.00. In the case of `Cc1nc2ccn(C)c(=O)c2cc1C(=O)NCc1ccccn1` [Example 53, 2,6-dimethyl-5-oxo-N-(pyridin-2-ylmethyl)-5,6-dihydro-1,6-naphthyridine-3-carboxamide], the negative logarithm of the EC50 (pEC50) was ≤ 5.00. With `Cc1noc(CNC(=O)c2cc3c(=O)n(Cc4ccccc4)ccc3nc2C)n1` [Example 10, 6-benzyl-2-methyl-N-((3-methyl-1,2,4-oxadiazol-5-yl)methyl)-5-oxo-5,6-dihydro-1,6-naphthyridine-3-carboxamide], the pEC50 was 6.00 to 7.00. In the case of `Cc1nc2ccn(Cc3ccc(F)c(F)c3)c(=O)c2cc1C(=O)NCc1cc(F)c(F)cn1` [Example 62, 6-(3,4-difluorobenzyl)-N-((4,5-difluoropyridin-2-yl)methyl)-2-methyl-5-oxo-5,6-dihydro-1,6-naphthyridine-3-carboxamide], the pEC50 is > 7.00.

The values are drawn from patent US20250281483A1, “TRANSCRIPTION FACTOR EB ACTIVATORS AND USES THEREOF” (Astellas Engineered Small Molecules US, Incorporated, priority 2022, published 2025).
